Results: article PMC3608651, “A Broad Profile of Co-Dominant Epitopes Shapes the Peripheral Mycobacterium tuberculosis Specific CD8+ T-Cell Immune Response in South African Patients with Active Tuberculosis” (PLoS ONE, 2013)
Read-outs that look alike come from different tables or passages of the source.

Experiments:
Assay type in all cases: binding
[1] = target: T1, HLA-A*30:02 (Homo sapiens, UniProt P04439, D101N/D140H/D185E/E176R/F33S/G80R/H175R/K168Q/Q94H/R138E/R41S/V100E); details: duplicated experiments, positive binder >40%
[2] = target: T1, HLA-A*30:02; details: time points 0-8 h
[3] = target: T1, HLA-A*30:02
[4] = target: HLA-A*68:01 (Homo sapiens, UniProt P04439, A269V/D185E/E176V/E277Q/E87N/F33Y/G231S/I121M/I166T/I218V/L180W/L300P/L318F/N151K/P208A/P217A/Q86R/R169H/T345S); details: duplicated experiments, positive binder >40%
[5] = target: HLA-B*07:02 (Homo sapiens, UniProt P01889); details: percent relative the binding of positive control peptide […]; duplicated experiments; positive binder >40%
[6] = target: HLA-C*07:01 (Homo sapiens, UniProt P10321, K90N/S123Y); details: duplicated experiments, positive binder >40%
[7] = target: HLA-A*02:01 (Homo sapiens, UniProt P04439, D140Y/D185E/D98H/E176V/E277Q/G131W/G231S/I119V/I121R/I166T/I218V/L300P/L318F/N151K/N90K/P208A/P217A/Q86G/Q94H/R138H/R169H/T345S); details: plate-bound monomer 0.5 µg/ml, duplicated experiments, positive binder >40%
[8] = target: HLA-B*58:01 (Homo sapiens, UniProt P01889, A329T/C349S/D201E/D98Y/E176V/E187L/E204Q/E69T/G107R/I218V/I90N/K202T/L105A/L119I/N104I/N87E/Q89R/Q94S/R106L/R155S/R180L/R86G/S101N/S121R/S35A/S48A/T118I/V127L/V306I/V36M/Y140S/Y91M); details: duplicated experiments, positive binder >40%
[9] = target: HLA-A*24:02 (Homo sapiens, UniProt P04439, D101N/D140Y/D185E/E176V/E190D/F33S/G103R/G107R/I119L/I121M/I306V/K335N/L105A/L180Q/L300P/N151K/N90K/Q86E/Q94H/R106L/R138H/R89G/T104I/T345S/V100E/W191G/Y123F); details: duplicated experiments, positive binder >40%
[10] = target: HLA-A*30:01 (Homo sapiens, UniProt P04439, D140H/D185E/E176W/F33S/G80R/H175R/K168Q/R138E/R41S); details: duplicated experiments, positive binder >40%
[11] = percent relative the binding of positive control peptide […]

Substance | Bind A*30:02 [1, 11] [%] | O-rate A*30:02 (t1/2) [2] [min] | Aff A*30:02 (ED50) [3] [µM] | Bind A*68:01 [4, 11] [%] | Bind B*07:02 [5] [%] | Bind C*07:01 [6, 11] [%] | Bind A*02:01 [7, 11] [%] | Bind B*58:01 [8, 11] [%] | Bind A*24:02 [9, 11] [%] | Bind A*30:01 [10, 11] [%] | Bind A*30:02 ([1]; percent relative the binding of positive control peptide KIQNFRVYY) [%] | Bind A*68:01 ([4]; percent relative the binding of positive control peptide KTGGPIYKR) [%] | Bind C*07:01 ([6]; percent relative the binding of positive control peptide KYFDEHYEY) [%] | Bind A*02:01 ([7]; percent relative the binding of positive control peptide FLPSDFFPSV) [%] | Bind B*58:01 ([8]; percent relative the binding of positive control peptide IAMESIVIW) [%] | Bind A*24:02 ([9]; percent relative the binding of positive control peptide RYLKDQQLL) [%] | Bind A*30:01 ([10]; percent relative the binding of positive control peptide KTKDIVNGL) [%]
DHAGDMAGY [Rv0288_13–21m1] | 141 | 18 | 0.01 |  |  |  |  |  |  |  |  |  |  |  |  |  | 
AYHSMSSTH [Rv0288_68–76m1] | 70 | 30 | 0.2 |  |  |  |  |  |  |  |  |  |  |  |  |  | 
DPSQGMGPS | 29 |  |  | 0 | 0 | 19 | 30 | 12 | 58 | 21 |  |  |  |  |  |  | 
LDPSQGMGP | 0 |  |  | 0 | 43 | 18 | 41 | 12 | 12 | 32 |  |  |  |  |  |  | 
NAVFNFPPN | 70 |  |  | 27 | 5 | 2 | 24 | 28 | 14 | 0 |  |  |  |  |  |  | 
ILAAYHPQQ | 45 |  |  | 0 | 1 | 1 | 57 | 30 | 0 | 1 |  |  |  |  |  |  | 
VYLLDGLRA | 98 |  |  | 13 | 0 | 9 | 86 | 0 | 87 | 0 |  |  |  |  |  |  | 
IPAEFLENF | 0 |  |  | 0 | 47 | 2 | 17 | 0 | 48 | 0 |  |  |  |  |  |  | 
DINTPAFEW | 0 |  |  | 3 | 9 | 10 | 0 | 58 | 56 | 7 |  |  |  |  |  |  | 
LAMGDAGGY | 74 |  |  | 56 | 2 | 0 | 10 | 39 | 0 | 0 |  |  |  |  |  |  | 
GKAGCQTYK | 58 |  |  | 72 | 9 | 0 | 33 | 22 | 19 | 34 |  |  |  |  |  |  | 
RLWVYCGNG | 65 |  |  | 12 | 2 | 9 | 45 | 8 | 0 | 0 |  |  |  |  |  |  | 
FLENFVRSS | 0 |  |  | 7 | 0 | 5 | 77 | 0 | 5 | 0 |  |  |  |  |  |  | 
THSWEYWGA | 67 |  |  | 57 | 2 | 6 | 21 | 0 | 0 | 0 |  |  |  |  |  |  | 
SQGMGPSLI | 0 |  |  | 0 | 2 | 22 | 50 | 11 | 55 | 11 |  |  |  |  |  |  | 
SSNLKFQDA | 64 |  |  | 14 | 0 | 10 | 32 | 9 | 12 | 0 |  |  |  |  |  |  | 
PAFEW YYQS | 0 |  |  | 6 | 15 | 2 | 76 | 0 | 24 | 0 |  |  |  |  |  |  | 
QLNAMKGDL | 0 |  |  | 0 | 49 | 17 | 71 | 0 | 60 | 10 |  |  |  |  |  |  | 
LVRAYHSMS [Rv0288_65–73m1] | 30 | 54 | 0.01 |  |  |  |  |  |  | 7 |  |  |  |  |  |  | 
LTSELPQW L | 19 |  |  | 0 | 7 | 2 | 56 | 34 | 9 | 0 |  |  |  |  |  |  | 
VQFQSGGNN | 51 |  |  | 0 | 0 | 0 | 0 | 0 | 0 | 0 |  |  |  |  |  |  | 
GSSAMILAA | 0 |  |  | 4 | 5 | 8 | 66 | 29 | 0 | 0 |  |  |  |  |  |  | 
T RLW V Y CG N | 33 |  |  | 5 | 0 | 15 | 0 | 0 | 0 | 45 |  |  |  |  |  |  | 
NAAGGHNAV | 2 |  |  | 28 | 16 | 5 | 39 | 43 | 0 | 27 |  |  |  |  |  |  | 
PTQQIPKLV | 86 |  |  | 0 | 5 | 22 | 3 | 9 | 11 | 10 |  |  |  |  |  |  | 
MGDAGGYKA | 0 |  |  | 9 | 0 | 0 | 45 | 0 | 0 | 0 |  |  |  |  |  |  | 
GANIPAEFL | 0 |  |  | 0 | 0 | 0 | 41 | 16 | 0 | 0 |  |  |  |  |  |  | 
ATELNNALQ [Rv3875_62–70] |  |  |  |  | 12 |  |  |  |  |  | 45 | 5 | 8 | 8 | 4 | 13 | 16
ALLDPSQGM | 86 |  |  | 0 | 17 | 22 | 60 | 1 | 0 | 5 |  |  |  |  |  |  | 
TMLGHAGDM [Rv0288_10–18m1] | 99 | 36 | 5 |  |  |  | 10 |  | 4 |  |  |  |  |  |  |  | 
